Values quoted from earlier work in patent publication US20100184765A1, “Protein Kinase Inhibitors and Methods for Using Thereof” (IRM LLC, priority 2007, published 2010).

Target: Flt-1 (Homo sapiens, UniProt P17948)
Conditions: VEGF binding to Flt-1, literature report

Flt-1, sequence (P17948 27-1338, species assumed): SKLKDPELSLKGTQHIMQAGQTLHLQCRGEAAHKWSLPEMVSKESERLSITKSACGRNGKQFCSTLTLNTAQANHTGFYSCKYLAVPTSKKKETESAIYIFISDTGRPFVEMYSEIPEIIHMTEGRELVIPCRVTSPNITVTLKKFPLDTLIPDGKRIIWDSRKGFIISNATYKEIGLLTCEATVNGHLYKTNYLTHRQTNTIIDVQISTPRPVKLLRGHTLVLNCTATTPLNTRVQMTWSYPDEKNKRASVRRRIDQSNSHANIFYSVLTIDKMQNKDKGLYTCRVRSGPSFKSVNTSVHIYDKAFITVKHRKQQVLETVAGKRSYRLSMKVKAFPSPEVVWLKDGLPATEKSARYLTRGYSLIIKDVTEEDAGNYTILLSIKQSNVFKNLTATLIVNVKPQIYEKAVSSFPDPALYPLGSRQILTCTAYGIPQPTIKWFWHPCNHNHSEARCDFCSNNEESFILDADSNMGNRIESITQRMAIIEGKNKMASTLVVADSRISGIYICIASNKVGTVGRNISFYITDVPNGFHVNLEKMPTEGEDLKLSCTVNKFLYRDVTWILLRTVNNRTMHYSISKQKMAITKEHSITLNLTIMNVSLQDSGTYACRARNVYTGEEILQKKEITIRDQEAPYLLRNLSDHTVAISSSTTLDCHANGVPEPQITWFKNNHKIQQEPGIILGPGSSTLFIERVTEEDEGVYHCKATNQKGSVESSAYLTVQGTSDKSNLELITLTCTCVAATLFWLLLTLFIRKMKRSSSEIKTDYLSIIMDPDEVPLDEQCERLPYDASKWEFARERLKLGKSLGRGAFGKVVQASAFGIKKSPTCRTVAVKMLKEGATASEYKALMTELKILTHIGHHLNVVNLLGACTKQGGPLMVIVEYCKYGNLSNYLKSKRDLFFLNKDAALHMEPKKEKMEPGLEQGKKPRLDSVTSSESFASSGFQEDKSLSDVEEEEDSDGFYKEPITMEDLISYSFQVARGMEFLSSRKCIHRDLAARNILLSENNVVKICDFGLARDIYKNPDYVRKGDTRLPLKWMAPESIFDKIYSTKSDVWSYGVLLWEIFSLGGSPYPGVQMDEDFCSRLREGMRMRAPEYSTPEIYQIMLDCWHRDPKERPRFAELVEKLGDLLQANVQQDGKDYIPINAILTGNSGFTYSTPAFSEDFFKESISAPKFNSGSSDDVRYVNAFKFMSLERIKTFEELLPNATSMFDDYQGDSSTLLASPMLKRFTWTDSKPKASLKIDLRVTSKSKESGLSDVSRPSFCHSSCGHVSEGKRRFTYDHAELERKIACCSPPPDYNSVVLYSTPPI

Substance: VEGF
- Kd: 20 pM
